Measured values from PMC6155831, “Promising Inhibitory Effects of Anthraquinones, Naphthopyrone, and Naphthalene Glycosides, from Cassia obtusifolia on α-Glucosidase and Human Protein Tyrosine Phosphatases 1B” (Molecules : A Journal of Synthetic Chemistry and Natural …, 2016).

What was measured:
[1] = tested on: α-glucosidase; parameters: method as in doi:10.1007/s10600-012-0275-4, PMID 25142941; settings: from the EtOAc fraction of the methanolic extract of C. obtusifolia; cited from earlier work
[2] = target: Yeast α-glucosidase; experiment: α-Glucosidase inhibitory assay with pNPG as substrate; assay type: biochemical; settings: test concentration up to 400 µg/mL in 10% DMSO, triplicate
Method: Enzyme inhibition assays were carried out spectrophotometrically using a procedure reported by Li et al.. A 60 μL reaction mixture containing 20 μL of 100 mM phosphate buffer (pH 6.8), 20 μL of 2.5 mM pNPG, and 20 μL of sample (test concentration up to 400 μg/ml for compounds) dissolved in 10% DMSO was added to each well, followed by the addition of 20 μL of α-glucosidase (0.2 U/mL in 10 mM phosphate buffer (pH 6.8)). The plate was incubated at 37 °C for 15 min, and then 80 μL of 0.2 M sodium carbonate solution was added to stop the reaction. Right after that, the absorbance was recorded at 405 nm using a VERSA max microplate reader (Molecular Devices, Sunnyvale, CA, USA). The control contained the same reaction mixture with the same volume of phosphate buffer instead of sample solution. […] The percent inhibition (%) was obtained using the following equation: % Inhibition = (Ac − As)/Ac × 100, where Ac is the absorbance of the control, and As is the absorbance of the sample.

[3] = target: T1, PTP1B (human recombinant) (Homo sapiens, UniProt P18031); experiment: Protein tyrosine phosphatase 1B (PTP1B) inhibition assay with pNPP as substrate; assay type: biochemical; settings: for PTP1B IC50 (Mean ± SEM) / IC50: pNPP substrate, test concentration up to 100 µg/mL in 10% DMSO, triplicate; for IC50: read-out: PTP1B IC50 (Mean ± SEM) (converted)
T1 construct: purchased Biomol International LP (Plymouth Meeting, PA, USA)
T1 sequence (P18031 1-435): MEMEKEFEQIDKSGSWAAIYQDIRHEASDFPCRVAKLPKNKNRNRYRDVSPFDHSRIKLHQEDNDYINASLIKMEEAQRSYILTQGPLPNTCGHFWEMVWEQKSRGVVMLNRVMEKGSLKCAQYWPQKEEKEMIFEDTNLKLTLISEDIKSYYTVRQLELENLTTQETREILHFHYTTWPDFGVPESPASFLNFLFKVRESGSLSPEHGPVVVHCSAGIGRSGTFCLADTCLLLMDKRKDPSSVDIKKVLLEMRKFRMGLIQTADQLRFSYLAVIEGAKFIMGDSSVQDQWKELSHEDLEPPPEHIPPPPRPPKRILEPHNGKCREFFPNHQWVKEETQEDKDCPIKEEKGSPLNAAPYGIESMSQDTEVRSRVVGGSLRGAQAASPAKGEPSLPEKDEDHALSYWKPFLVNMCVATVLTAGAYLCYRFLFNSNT
Method: The PTP1B inhibitory activities were evaluated using p-nitrophenyl phosphate as the substrate (pNPP) in a procedure reported by Cui et al.. Each well of a 96-well plate (final volume 100 μL) contained were 40 μL of PTP1B enzyme (0.5 units diluted with a PTP1B reaction buffer containing 50 mM citrate (pH 6.0), 0.1 M NaCl, 1 mM EDTA, and 1 mM dithiotheritol (DTT)), to which sample (test concentration up to 100 μg/mL) dissolved in 10% DMSO was or was not added. The plate was pre-incubated at 37 °C for 10 min, and then 50 μL of 2 mM pNPP in PTP1B reaction buffer was added. Following incubation at 37 °C for 30 min, the reaction was terminated with the addition of 10 M NaOH. The amounts of p-nitrophenyl produced after enzymatic dephosphorylation from pNPP was estimated by measuring the absorbance at 405 nm using microplate spectrophotometer (Molecular Devices). The non-enzymatic hydrolysis of 2 mM pNPP was corrected by measuring the increase in absorbance at 405 nm obtained in the absence of PTP1B enzyme. The percent inhibition (%) was obtained by the following equation: % inhibition = (Ac − As)/Ac × 100, where Ac is the absorbance of the control, and As is the absorbance of the sample.

[4] = tested on: HepG2 cells; experiment: MTT cytotoxicity assay on HepG2 cells; settings: 24 h
Method: Before determining the insulin resistance of alaternin and emodin, the cytotoxicity of alaternin and emodin on HepG2 cells was first measured by the MTT assay. […] To investigate the ability of alaternin and emodin to increase glucose uptake, a 2-[N-(7-nitrobenz-2-oxa-1,3-diazol-4-yl) amino]-2-deoxy-D-glucose (2-NBDG) uptake assay was performed with insulin-resistant HepG2 cells.

[5] = target: T1, PTP1B (human recombinant); experiment: Enzyme kinetic analysis of PTP1B inhibition (Dixon and Lineweaver-Burk plots); assay type: biochemical
Method: (§1) Since the Ki value represents the concentration needed to form an enzyme-inhibitor complex, this value plays an important role in the development of preventive and therapeutic agents.
(§2) In order to determine the inhibition mechanism, enzymatic inhibition at various concentrations of alaternin was evaluated by monitoring the effects of different concentrations of the substrates via Dixon plots (single reciprocal plot). Dixon plots of inhibition of PTP1B by alaternin were obtained in the presence of different concentrations of substrate: 1.0, 0.5, and 0.25 mM of pNPP. The test concentrations of alaternin in the PTP1B kinetic analysis were 0, 0.8, and 4.0 µM. Dixon plots of α-glucosidase inhibition by alaternin were performed in the presence of different concentrations of substrate: 2.5, 1.25, and 0.625 mM of pNPG. The test concentrations of alaternin used in the α-glucosidase kinetic analysis were 0.97, 1.95, and 3.90 µM. Both enzymatic procedures consisted of the same, aforementioned PTP1B and α-glucosidase assay methods. The inhibition constants (Ki) were determined by interpretation of the Dixon plots, where the value of the x-axis implies −Ki.

[6] = tested on: Yeast α-glucosidase; experiment: Enzyme kinetic analysis of α-glucosidase inhibition (Dixon and Lineweaver-Burk plots); assay type: biochemical; settings: for Inhibition type α-Glucosidase: Dixon plot and Lineweaver-Burk plot
Method: as §1, §2

[7] = tested on: insulin-resistant HepG2 cells; experiment: 2-NBDG glucose uptake assay in insulin-resistant HepG2 cells; assay type: cell-based, human; settings: for insulin-stimulated uptake of 2-NBDG: 24 h, compared to the control
Method: The HepG2 (human hepatocarcinoma) cell line was purchased from the American Type Culture Collection (HB-8065, Manassas, VA, USA). Cells were maintained in MEM containing 2.0 mM L-glutamine, 0.1 mM non-essential amino acids, 1.0 mM sodium pyruvate, and 10% FBS at 37 °C in a humidified atmosphere with 5% CO2. The medium was changed every 48 h. […] The establishment of an insulin-resistant HepG2 cell model and glucose uptake was performed according to the reported method, with slight modifications. Briefly, HepG2 cells were cultured in 96-well cluster plates. After reaching confluence, the cells were treated with 10^−6 mol/L insulin for 24 h to induce insulin resistance. […] After this incubation, the 2-NBDG uptake in insulin-resistant HepG2 cells was measured. The cells were incubated with 40 μM 2-NBDG for 30 min. To stop the response, cells were washed with ice-cold PBS and the fluorescence intensity of 2-NBDG was measured on a Synergy HT microplate reader (BioTek Instruments, Winooski, VT, USA) at 485 nm excitation and 528 nm emission. Six replicate wells were established and each experiment was repeated three times.

[8] = tested on: PTP1B; parameters: method as in earlier work; settings: cited from earlier work

Compound | α-Glucosidase IC50 (Mean ± SEM) [2] | PTP1B IC50 (Mean ± SEM) [3] | IC50 [3] | also measured
COc1cc(C)cc2c1C(=O)c1c(O)cc(O)cc1C2=O [1-O-methylemodin] |  |  |  | α-glucosidase inhibitory activity (reported) [1]: inactive
COc1c(O)c(O)cc2c1C(=O)c1c(O)cc(C)cc1C2=O [2-Hydroxyemodin-1 methylether] | 5.65 ± 0.20 µg/mL | 5.22 ± 0.29 µg/mL |  | 
COc1cccc2c1C(=O)c1c(O)cc(C)cc1C2=O [8-O-methyl chrysophanol] |  |  |  | α-glucosidase inhibitory activity (reported) [1]: α-glucosidase inhibitors
Cc1cc2c(c(O)c1O)C(=O)c1c(O)cc(O)cc1C2=O [Alaternin, 2-hydroxy emodin] | 0.99 ± 0.02 µg/mL |  | 4.26 µM | concentration without any cytotoxicity ([4]; HepG2 cells, MTT): up to 50 µM; Inhibition type PTP1B ([5]; Dixon plot and Lineweaver-Burk plot): Competitive; Ki ([5]; Dixon plot, pNPP 1.0, 0.5, 0.25 mM): 1.7 µM; Inhibition type α-Glucosidase [6]: mixed type; Inhibition type α-Glucosidase ([6]; listed as alaternin): Mixed; Ki ([6]; Dixon plot, pNPG 2.5, 1.25, 0.625 mM): 0.66 µM; PTP1B inhibitory activity compared with emodin ([3]; fold higher than emodin): three-fold higher; insulin-stimulated uptake of 2-NBDG ([7]; 12.5, 25, and 50 μM alaternin): significantly enhanced
O=C1c2cccc(O)c2C(=O)c2c(O)cc(CO)cc21 [Aloe-emodin] | 1.40 ± 0.27 µg/mL |  | 207 µM | 
COc1c(O)cc2c(c1O)C(=O)c1c(cc(C)c(O)c1OC)C2=O [Aurantio-obtusin] | 41.20 ± 0.17 µg/mL |  | 82.3 µM | α-glucosidase inhibitory activity (reported) [1]: inactive
COc1cc2c(c(OC)c1OC)C(=O)c1c(cc(C)c(O[C@@H]3O[C@H](CO)[C@@H](O)[C@H](O)[C@H]3O)c1OC)C2=O [Chryso-obtusin-2-glucoside, chryso-obtusin-2-O-β-D-glucoside] | 178.85 ± 0.55 µg/mL | 39.34 ± 1.07 µg/mL |  | 
COc1cc2c(c(OC)c1OC)C(=O)c1c(cc(C)c(O)c1OC)C2=O [Chryso-obtusin] | 36.01 ± 0.89 µg/mL |  | 41.5 µM | α-glucosidase inhibitory activity (reported) [1]: α-glucosidase inhibitors
Cc1cc(O[C@@H]2O[C@H](CO[C@@H]3O[C@H](CO)[C@@H](O)[C@H](O[C@@H]4O[C@H](CO[C@@H]5O[C@H](CO)[C@@H](O)[C@H](O)[C@H]5O)[C@@H](O)[C@H](O)[C@H]4O)[C@H]3O)[C@@H](O)[C@H](O)[C@H]2O)c2c(c1)C(=O)c1cccc(O)c1C2=O [Chrysophanol tetraglucoside] | 228.79 ± 0.91 µg/mL | 103.89 ± 1.22 µg/mL |  | 
Cc1cc(O[C@@H]2O[C@H](CO[C@@H]3O[C@H](CO)[C@@H](O)[C@H](O[C@@H]4O[C@H](CO)[C@@H](O)[C@H](O)[C@H]4O)[C@H]3O)[C@@H](O)[C@H](O)[C@H]2O)c2c(c1)C(=O)c1cccc(O)c1C2=O [Chrysophanol triglucoside] | 197.06 ± 1.09 µg/mL | 80.17 ± 1.77 µg/mL |  | 
Cc1cc(O)c2c(c1)C(=O)c1cccc(O)c1C2=O [Chrysophanol] | 46.81 ± 0.12 µg/mL |  | 23 µM | PTP1B inhibition (previous reports) [8]: inhibited PTP1B
Cc1cc(O)c2c(c1)C(=O)c1cc(O)cc(O)c1C2=O [Emodin, 1,6,8-trihydroxy 3-methyl anthraquinone] | 1.02 ± 0.01 µg/mL |  | 13 µM | concentration without any cytotoxicity ([4]; human): up to 12.5 µM; PTP1B inhibition (previous reports) [8]: inhibited PTP1B; insulin-stimulated uptake of 2-NBDG ([7]; 3.125, 6.25, and 12.5 μM emodin): significantly enhanced
COc1c(O[C@@H]2O[C@H](CO)[C@@H](O)[C@H](O)[C@H]2O)cc2c(c1O)C(=O)c1c(cc(C)c(O)c1OC)C2=O [Gluco-aurantio obtusin] | 142.19 ± 1.22 µg/mL | 31.30 ± 0.97 µg/mL |  | 
COc1c(O[C@@H]2O[C@H](CO)[C@@H](O)[C@H](O)[C@H]2O)c(C)cc2c1C(=O)c1c(O)cccc1C2=O [Gluco-obtusifolin] | 23.77 ± 0.72 µg/mL | 53.35 ± 0.44 µg/mL |  | 
COc1c(O)c(C)cc2c1C(=O)c1c(O)cccc1C2=O [Obtusifolin] | 142.12 ± 0.77 µg/mL |  | 124 µM | α-glucosidase inhibitory activity (reported) [1]: inactive
COc1cc2c(c(O)c1OC)C(=O)c1c(cc(C)c(O)c1OC)C2=O [Obtusin] | 20.92 ± 0.41 µg/mL | 6.44 ± 0.22 µg/mL |  | 
COc1cc(O)c2c(c1)C(=O)c1cc(C)cc(O)c1C2=O [Physcion] | 2.38 ± 0.77 µg/mL |  | 25.6 µM | PTP1B inhibition (previous reports) [8]: inhibited PTP1B; α-glucosidase inhibitory activity (reported) [1]: α-glucosidase inhibitors
COc1cc(O)cc2c1C(=O)c1c(O)cc(C)cc1C2=O [Questin] | 136.19 ± 0.01 µg/mL |  | 20 µM | 
CN(C)C(=N)N=C(N)N [metformin, reference compound] |  |  |  | insulin-stimulated glucose uptake ([7]; metformin 10 μM, positive control): significantly increased
Cassiaside | 129.23 ± 0.98 µg/mL | 48.55 ± 1.27 µg/mL |  | 
Cassitoroside | 172.59 ± 0.74 µg/mL |  |  | 
Toralactone gentiobioside | 37.60 ± 0.79 µg/mL | 81.15 ± 0.15 µg/mL |  | 
